Source: PubChem BioAssay AID256 (DTP/NCI, 2004)
Where “and” joins values, the source holds several entries; their conditions need not be identical. Identical values can stand only once. Inconclusive results and toxic doses are left out.

Test system: CD2F1 mice, L1210 leukemia ip, survival T/C
Assay: NCI In Vivo Anticancer Drug Screen. Data for tumor model L1210 Leukemia (intraperitoneal) in CD2F1 (CDF1) mice
Settings: higher = longer survival
Outline: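 Antitumor effect is scored in animals hosting a serially transplanted tumor. Values compare compound-dosed animals against vehicle-only controls as a simple quotient.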

[1] = endpoint: mean survival time, dose: 100.0 mg/kg/injection, schedule: Q01DX001 (ip), vehicle: saline with Tween-80
[2] = endpoint: mean survival time, dose: 200.0 mg/kg/injection, schedule: Q01DX001 (ip), vehicle: saline with Tween-80
[3] = endpoint: mean survival time, dose: 400.0 mg/kg/injection, schedule: Q01DX001 (ip), vehicle: saline with Tween-80
[4] = endpoint: mean survival time, dose: 100.0 mg/kg/injection, schedule: Q04DX003 (ip), vehicle: saline with Tween-80
[5] = endpoint: mean survival time, dose: 200.0 mg/kg/injection, schedule: Q04DX003 (ip), vehicle: saline with Tween-80
[6] = endpoint: mean survival time, dose: 400.0 mg/kg/injection, schedule: Q04DX003 (ip), vehicle: saline with Tween-80
[7] = endpoint: mean survival time, dose: 100.0 mg/kg/injection, schedule: Q01DX009 (ip), vehicle: saline with Tween-80
[8] = endpoint: mean survival time, dose: 200.0 mg/kg/injection, schedule: Q01DX009 (ip), vehicle: saline with Tween-80
[9] = endpoint: mean survival time, dose: 400.0 mg/kg/injection, schedule: Q01DX009 (ip), vehicle: saline with Tween-80
[10] = endpoint: mean survival time, dose: 12.5 mg/kg/injection, schedule: Q01DX009 (ip), vehicle: saline with Tween-80
[11] = endpoint: mean survival time, dose: 25.0 mg/kg/injection, schedule: Q01DX009 (ip), vehicle: saline with Tween-80
[12] = endpoint: mean survival time, dose: 100.0 mg/kg/injection, schedule: Q01DX009 (ip), vehicle: other
[13] = endpoint: mean survival time, dose: 200.0 mg/kg/injection, schedule: Q01DX009 (ip), vehicle: other
[14] = endpoint: mean survival time, dose: 100.0 mg/kg/injection, schedule: Q04DX002 (ip), vehicle: saline with Tween-80
[15] = endpoint: mean survival time, dose: 200.0 mg/kg/injection, schedule: Q04DX002 (ip), vehicle: saline with Tween-80
[16] = endpoint: mean survival time, dose: 50.0 mg/kg/injection, schedule: Q01DX009 (ip), vehicle: saline with Tween-80

C=C(NC(=O)C(=C)NC(=O)c1csc(C2=NC3c4csc(n4)C4NC(=O)c5csc(n5)C(C(C)(O)C(C)O)NC(=O)C5CSC(=N5)/C(=C/C)NC(=O)C(C(C)O)NC(=O)c5csc(n5)C3(CC2)NC(=O)C(C)NC(=O)C(=C)NC(=O)C(C)NC(=O)C(C(C)CC)NC2C=Cc3c(C(C)O)cc(nc3C2O)C(=O)OC4C)n1)C(N)=O (stereo unspecified)
T/C (endpoint: mean survival time, dose: 118.0 mg/kg/injection, schedule: Q04DX003 (ip), vehicle: saline): 117 % of control

O=C(/C=C\c1ccc([N+]([O-])=Nc2ccc(/C=C/C(=O)c3ccccc3)cc2)cc1)c1ccccc1
T/C [1]: 102 % of control | T/C [2]: 86 % of control | T/C [3]: 98 % of control

CS(=O)(=O)C(=Cc1ccccc1Cl)S(C)(=O)=O
T/C [4]: 103 % of control | T/C [5]: 95 % of control | T/C [6]: 101 % of control

CN1CN(C2CCCCC2)CSC1=S
T/C (endpoint: mean survival time, dose: 100.0 mg/kg/injection, schedule: Q01DX001 (ip), vehicle: saline): 102 % of control | T/C [7]: 102 % of control | T/C (endpoint: mean survival time, dose: 200.0 mg/kg/injection, schedule: Q01DX001 (ip), vehicle: saline): 100 % of control | T/C [8]: 96 % of control | T/C (endpoint: mean survival time, dose: 400.0 mg/kg/injection, schedule: Q01DX001 (ip), vehicle: saline): 102 % of control | T/C [9]: 106 % of control

CC(O)C1OC(n2cnc3c(N)ncnc32)CC1N (stereo unspecified)
T/C (endpoint: mean survival time, dose: 12.5 mg/kg/injection, schedule: Q01DX005 (ip), vehicle: distilled water + Tween-80): 101 % of control | T/C (endpoint: mean survival time, dose: 25.0 mg/kg/injection, schedule: Q01DX005 (ip), vehicle: distilled water + Tween-80): 103 % of control | T/C (endpoint: mean survival time, dose: 50.0 mg/kg/injection, schedule: Q01DX005 (ip), vehicle: distilled water + Tween-80): 100 % of control | T/C (endpoint: mean survival time, dose: 100.0 mg/kg/injection, schedule: Q01DX005 (ip), vehicle: distilled water + Tween-80): 100 % of control | T/C (endpoint: mean survival time, dose: 200.0 mg/kg/injection, schedule: Q01DX005 (ip), vehicle: distilled water + Tween-80): 100 % of control

O=C1/C(=C(/c2ccccc2)N2CCOCC2)Cc2ccccc21
T/C (endpoint: mean survival time, dose: 6.25 mg/kg/injection, schedule: Q01DX009 (ip), vehicle: saline with Tween-80): 90 % of control | T/C (endpoint: mean survival time, dose: 6.25 mg/kg/injection, schedule: Q04DX003 (ip), vehicle: saline with Tween-80): 99 % of control | T/C [10]: 97 % of control | T/C (endpoint: mean survival time, dose: 12.5 mg/kg/injection, schedule: Q04DX003 (ip), vehicle: saline with Tween-80): 91 % of control | T/C [11]: 92 % of control | T/C (endpoint: mean survival time, dose: 25.0 mg/kg/injection, schedule: Q04DX003 (ip), vehicle: saline with Tween-80): 98 % of control

Nc1nc(Cl)nc2c1ncn2C1CC(O)C(CO)O1 (stereo unspecified)
T/C (endpoint: median survival time, dose: 1.56 mg/kg/injection, schedule: Q01DX009 (ip), vehicle: Klucel (hydroxypropylcellulose) (HPC)): 124 % of control | T/C (endpoint: median survival time, dose: 7.5 mg/kg/injection, schedule: Q03HX009 (ip), vehicle: saline): 172 % of control | T/C (endpoint: median survival time, dose: 7.5 mg/kg/injection, schedule: Q03HX009 (ip), vehicle: suspension in saline): 107 % of control | T/C (endpoint: median survival time, dose: 10.0 mg/kg/injection, schedule: Q03HX024 (ip), vehicle: saline): 735 % of control | T/C (endpoint: median survival time, dose: 12.5 mg/kg/injection, schedule: Q01DX009 (ip), vehicle: Klucel (hydroxypropylcellulose) (HPC)): 180 % of control | T/C (endpoint: median survival time, dose: 15.0 mg/kg/injection, schedule: Q03HX009 (ip), vehicle: saline): 168 % of control | T/C (endpoint: median survival time, dose: 15.0 mg/kg/injection, schedule: Q03HX009 (ip), vehicle: suspension in saline): 100 % of control | T/C (endpoint: median survival time, dose: 15.0 mg/kg/injection, schedule: Q03HX024 (ip), vehicle: saline): 345 % of control | T/C (endpoint: median survival time, dose: 20.0 mg/kg/injection, schedule: Q03HX024 (ip), vehicle: saline): 735 % of control | T/C (endpoint: median survival time, dose: 25.0 mg/kg/injection, schedule: Q01DX009 (ip), vehicle: Klucel (hydroxypropylcellulose) (HPC)): 192 % of control | T/C (endpoint: median survival time, dose: 30.0 mg/kg/injection, schedule: Q03HX009 (ip), vehicle: saline): 208 % of control | T/C (endpoint: median survival time, dose: 30.0 mg/kg/injection, schedule: Q03HX009 (ip), vehicle: suspension in saline): 109 % of control | T/C (endpoint: median survival time, dose: 60.0 mg/kg/injection, schedule: Q03HX009 (ip), vehicle: saline): 204 % of control | T/C (endpoint: median survival time, dose: 60.0 mg/kg/injection, schedule: Q03HX009 (ip), vehicle: suspension in saline): 109 % of control | T/C (endpoint: median survival time, dose: 120.0 mg/kg/injection, schedule: Q03HX009 (ip), vehicle: suspension in saline): 113 % of control

CNC(=O)Oc1cccc(NC(=O)OCCCCl)c1
T/C [1]: 100 % of control | T/C [2]: 105 % of control | T/C [3]: 105 % of control

CCN1c2ccccc2Sc2cc(C=O)ccc21
T/C (endpoint: mean survival time, dose: 50.0 mg/kg/injection, schedule: Q01DX009 (ip), vehicle: Klucel (hydroxypropylcellulose) (HPC)): 97 % of control | T/C (endpoint: mean survival time, dose: 100.0 mg/kg/injection, schedule: Q01DX009 (ip), vehicle: Klucel (hydroxypropylcellulose) (HPC)): 108 % of control

CCC(=O)c1ccccc1NC(C)=O
T/C [5]: 95 % of control | T/C [6]: 97 % of control

COc1cccc(C(=O)CC(O)(C(F)(F)F)C(F)(F)F)c1
T/C [12]: 101 % of control | T/C [13]: 97 % of control | T/C (endpoint: mean survival time, dose: 400.0 mg/kg/injection, schedule: Q01DX009 (ip), vehicle: other): 101 % of control

O=[N+]([O-])c1cccc(S(=O)(=O)O)c1.[Fe]
T/C (endpoint: mean survival time, dose: 50.0 mg/kg/injection, schedule: Q01DX009 (ip), vehicle: saline): 103 % of control | T/C (endpoint: mean survival time, dose: 100.0 mg/kg/injection, schedule: Q01DX009 (ip), vehicle: saline): 91 % of control

COC1=C(C)C(=O)C2=C(C1=O)C(CO)N1C(C#N)C3CC4C(C1C2N1CCOC41)N3C (stereo unspecified)
T/C (endpoint: median survival time, dose: 0.12 mg/kg/injection, schedule: Q01DX005 (ip), vehicle: acid diluted with saline): 102 % of control | T/C (endpoint: median survival time, dose: 0.12 mg/kg/injection, schedule: Q01DX009 (ip), vehicle: saline + alcohol): 111 % of control | T/C (endpoint: median survival time, dose: 0.25 mg/kg/injection, schedule: Q01DX005 (ip), vehicle: acid diluted with saline): 102 % of control | T/C (endpoint: median survival time, dose: 0.25 mg/kg/injection, schedule: Q01DX009 (ip), vehicle: saline + alcohol): 113 % of control | T/C (endpoint: median survival time, dose: 0.5 mg/kg/injection, schedule: Q01DX005 (ip), vehicle: acid diluted with saline): 105 % of control | T/C (endpoint: median survival time, dose: 0.5 mg/kg/injection, schedule: Q01DX009 (ip), vehicle: saline + alcohol): 111 % of control | T/C (endpoint: median survival time, dose: 1.0 mg/kg/injection, schedule: Q01DX005 (ip), vehicle: acid diluted with saline): 104 % of control | T/C (endpoint: median survival time, dose: 1.0 mg/kg/injection, schedule: Q01DX009 (ip), vehicle: saline + alcohol): 108 % of control

O=C(O)CCOc1cc(F)c(Cl)cc1Cl
T/C [14]: 94 % of control | T/C [15]: 86 % of control | T/C (endpoint: mean survival time, dose: 400.0 mg/kg/injection, schedule: Q04DX002 (ip), vehicle: saline with Tween-80): 86 % of control

CCCCCCCCOC(=O)c1ccccc1C(=O)OCCCCCCCC
T/C [7]: 110 % of control | T/C [4]: 98 % of control | T/C [8]: 102 % of control | T/C [5]: 93 % of control | T/C [9]: 98 % of control | T/C [6]: 90 % of control

Cc1ccc(Cl)cc1NS(=O)(=O)c1ccccc1
T/C [7]: 94 % of control | T/C [4]: 100 % of control | T/C [8]: 96 % of control | T/C [5]: 105 % of control | T/C [9]: 94 % of control | T/C [6]: 105 % of control

NC(=O)C1C(c2ccccc2)=C(c2ccccc2)c2ccccc21 (stereo unspecified)
T/C [1]: 87 % of control | T/C [2]: 87 % of control | T/C [3]: 87 % of control

O=C(C[n+]1ccccc1)N/N=C/c1ccc(Cl)cc1
T/C [7]: 107 % of control

Nc1ccc2cc3ccccc3cc2c1
T/C [10]: 104 % of control | T/C [11]: 104 % of control | T/C [16]: 95 % of control | T/C [4]: 109 % of control | T/C [5]: 111 % of control | T/C [6]: 94 % of control

CC(O)CC1CCCC(C)N1 (stereo unspecified)
T/C (endpoint: mean survival time, dose: 50.0 mg/kg/injection, schedule: Q04DX003 (ip), vehicle: saline with Tween-80): 90 % of control and 100 % of control | T/C [1]: 101 % of control | T/C [14]: 100 % of control and 106 % of control | T/C [4]: 100 % of control and 101 % of control | T/C [2]: 101 % of control | T/C [15]: 98 % of control and 100 % of control | T/C [5]: 93 % of control and 100 % of control

Cc1cc(Cl)ccc1NC(=O)Nc1ccccc1C(N)=O
T/C [16]: 95 % of control | T/C [7]: 95 % of control | T/C [8]: 91 % of control

Nc1nc2c(c(=O)[nH]1)N=C(CCc1ccccc1)CO2
T/C (endpoint: mean survival time, dose: 25.0 mg/kg/injection, schedule: Q01DX009 (ip), vehicle: other): 91 % of control | T/C (endpoint: mean survival time, dose: 50.0 mg/kg/injection, schedule: Q01DX009 (ip), vehicle: other): 93 % of control | T/C [12]: 87 % of control | T/C [13]: 87 % of control

O=C(O)/C(=C\c1ccccc1)c1ccccc1
T/C [7]: 90 % of control | T/C [8]: 101 % of control | T/C [9]: 95 % of control
